Laboratory results as given in US10118935B2, “Melampomagnolide B dimers” (priority 2014, dated 2018).

How the values were obtained:
HT29 = experiment: NCI 60 cell line five dose, Colon Cancer
MCF7 = experiment: NCI 60 cell line five dose, Breast Cancer
NCI-H322M = experiment: NCI 60 cell line five dose, Non-Small Cell Lung Cancer
HS 578T = experiment: NCI 60 cell line five dose, Breast Cancer; conditions: HS578T
EKVX = experiment: NCI 60 cell line five dose, Non-Small Cell Lung Cancer; assay type: cell-based, human
TK-10 = experiment: NCI 60 cell line five dose, Renal Cancer
U251 = experiment: NCI 60 cell line five dose, CNS Cancer
SK-MEL-2 = experiment: NCI 60 cell line five dose, Melanoma
OVCAR-4 = experiment: NCI 60 cell line five dose, Ovarian Cancer
T-47D = experiment: NCI 60 cell line five dose, Breast Cancer
HOP-92 = experiment: NCI 60 cell line five dose, Non-Small Cell Lung Cancer
ACHN = experiment: NCI 60 cell line five dose, Renal Cancer

## C=C1C(=O)O[C@H]2[C@H]1CC/C(COC(=O)NCCCCCCCCNC(=O)OC/C1=C/CC[C@@]3(C)O[C@H]3[C@H]3OC(=O)C(=C)[C@@H]3CC1)=C\CC[C@@]1(C)O[C@@H]21 [JVM 3-62, bis(((1aR,7aS, 10aS, 10bS, E)-1a-Methyl-8-methylene-9-oxo-1a,2,3,6,7,7a,8,9,10a,10b-decahydrooxireno[2′,3′:9,10]cyclodeca[1,2-b]furan-5-yl)methyl)octane-1,8-diyldicarbamate]
HT29; Log10 Concentration −4.0
  Percent Growth: −84%
HT29; Log10 Concentration −5.0
  Percent Growth: −80%
HT29; Log10 Concentration −6.0
  Percent Growth: −33%
HT29; Log10 Concentration −7.0
  Percent Growth: 97%
HT29; Log10 Concentration −8.0
  Percent Growth: 100%
HT29; molar
  GI50: 228 nM
HT29; read-out: LC50, molar
  CC50: 2270 nM
MCF7; Log10 Concentration −4.0
  Percent Growth: −54%
MCF7; Log10 Concentration −5.0
  Percent Growth: −75%
MCF7; Log10 Concentration −6.0
  Percent Growth: −7%
MCF7; Log10 Concentration −7.0
  Percent Growth: 80%
MCF7; Log10 Concentration −8.0
  Percent Growth: 89%
MCF7; molar
  GI50: 221 nM
  TGI: 8.33E−7
MCF7; read-out: LC50, molar
  CC50: 4300 nM
NCI-H322M; Log10 Concentration −4.0
  Percent Growth: −91%
NCI-H322M; Log10 Concentration −5.0
  Percent Growth: −51%
NCI-H322M; Log10 Concentration −6.0
  Percent Growth: 100%
NCI-H322M; Log10 Concentration −7.0
  Percent Growth: 104%
NCI-H322M; Log10 Concentration −8.0
  Percent Growth: 107%
NCI-H322M; molar
  GI50: 2140 nM
HS 578T; Log10 Concentration −4.0
  Percent Growth: −26%
HS 578T; Log10 Concentration −5.0
  Percent Growth: −5%
HS 578T; Log10 Concentration −6.0
  Percent Growth: 54%
HS 578T; Log10 Concentration −7.0
  Percent Growth: 90%
HS 578T; Log10 Concentration −8.0
  Percent Growth: 94%
HS 578T; molar
  GI50: 1170 nM
  TGI: 8.25E−6
HS 578T; read-out: LC50, molar
  CC50: > 100000 nM
EKVX; Log10 Concentration −4.0
  Percent Growth: −98%
EKVX; Log10 Concentration −5.0
  Percent Growth: −99%
EKVX; Log10 Concentration −6.0
  Percent Growth: 62%
EKVX; Log10 Concentration −7.0
  Percent Growth: 90%
EKVX; Log10 Concentration −8.0
  Percent Growth: 91%
EKVX; molar
  GI50: 1190 nM
  TGI: 2.44E−6
EKVX; molar, read-out: LC50 (the source's name)
  CC50: 4990 nM
TK-10; Log10 Concentration −4.0
  Percent Growth: −99%
TK-10; Log10 Concentration −5.0
  Percent Growth: −98%
TK-10; Log10 Concentration −6.0
  Percent Growth: −7%
TK-10; Log10 Concentration −7.0
  Percent Growth: 97%
TK-10; Log10 Concentration −8.0
  Percent Growth: 92%
TK-10; molar
  GI50: 284 nM
  TGI: 8.56E−7
TK-10; read-out: LC50, molar
  CC50: 2950 nM
U251; Log10 Concentration −4.0
  Percent Growth: −77%
U251; Log10 Concentration −5.0
  Percent Growth: −79%
U251; Log10 Concentration −6.0
  Percent Growth: −18%
U251; Log10 Concentration −7.0
  Percent Growth: 91%
U251; Log10 Concentration −8.0
  Percent Growth: 96%
U251; molar
  GI50: 578 nM
  TGI: 2.00E−6
U251; read-out: LC50, molar
  CC50: 5130 nM
SK-MEL-2; Log10 Concentration −4.0
  Percent Growth: −68%
SK-MEL-2; Log10 Concentration −5.0
  Percent Growth: −45%
SK-MEL-2; Log10 Concentration −6.0
  Percent Growth: 36%
SK-MEL-2; Log10 Concentration −7.0
  Percent Growth: 100%
SK-MEL-2; Log10 Concentration −8.0
  Percent Growth: 92%
SK-MEL-2; molar
  GI50: 601 nM
  TGI: 2.79E−6
OVCAR-4; Log10 Concentration −4.0
  Percent Growth: −89%
OVCAR-4; Log10 Concentration −5.0
  Percent Growth: −92%
OVCAR-4; Log10 Concentration −6.0
  Percent Growth: 34%
OVCAR-4; Log10 Concentration −7.0
  Percent Growth: 91%
OVCAR-4; Log10 Concentration −8.0
  Percent Growth: 90%
OVCAR-4; molar
  GI50: 521 nM
OVCAR-4; read-out: LC50, molar
  CC50: 4630 nM
T-47D; Log10 Concentration −4.0
  Percent Growth: −49%
T-47D; Log10 Concentration −5.0
  Percent Growth: −46%
T-47D; Log10 Concentration −6.0
  Percent Growth: −4%
T-47D; Log10 Concentration −7.0
  Percent Growth: 100%
T-47D; Log10 Concentration −8.0
  Percent Growth: 92%
T-47D; molar
  GI50: 323 nM
  TGI: 9.15E−7
T-47D; read-out: LC50, molar
  CC50: > 100000 nM
HOP-92; Log10 Concentration −4.0
  Percent Growth: −88%
HOP-92; Log10 Concentration −5.0
  Percent Growth: −92%
HOP-92; Log10 Concentration −6.0
  Percent Growth: −26%
HOP-92; Log10 Concentration −7.0
  Percent Growth: 75%
HOP-92; Log10 Concentration −8.0
  Percent Growth: 87%
HOP-92; molar
  GI50: 177 nM
  TGI: 5.51E−7
HOP-92; read-out: LC50, molar
  CC50: 2290 nM
ACHN; Log10 Concentration −4.0
  Percent Growth: −78%
ACHN; Log10 Concentration −5.0
  Percent Growth: −84%
ACHN; Log10 Concentration −6.0
  Percent Growth: −31%
ACHN; Log10 Concentration −7.0
  Percent Growth: 100%
ACHN; Log10 Concentration −8.0
  Percent Growth: 98%
ACHN; molar
  GI50: 268 nM
  TGI: 6.62E−7
ACHN; read-out: LC50, molar
  CC50: 2850 nM
